Assays:
[1] = target: K-Ras^G12C : hSOS1 interaction (Homo sapiens, UniProt Q07889); experiment: Biochemical assay 1: K-Ras^G12C interaction assay with hSOS1 (HTRF); type: binding; settings: E-notation values; unit inferred; read-out: Assay 1 (KRAS-SOS interaction) IC50
[2] = target: human SOS1 (nucleotide exchange of K-Ras^G12C) (Homo sapiens, UniProt Q07889); experiment: Biochemical assay 2: K-Ras^G12C activation assay by hSOS1 at high GTP concentration (HTRF); settings: E-notation values; unit inferred; 50 μM GTP; read-out: Assay 2 (KRAS-Activation, high GTP) IC50

SMILES	IC50 [1]	IC50 [2]
COc1cc(C)c2nc(C)nc(N[C@H](C)c3cccc(Cl)c3)c2c1 [Example 396, N-[(1R)-1-(3-chlorophenyl)ethyl]-6-methoxy-2,8-dimethylquinazolin-4-amine]	2240 nM	1150 nM
COc1cc2nc(C)nc(NC(C)c3ccc(-c4cccc(Cl)c4CN)s3)c2cc1OC (stereo not drawn) [Example 397, N-[1-{5-[2-(aminomethyl)-3-chlorophenyl]thiophen-2-yl}ethyl]-6,7-dimethoxy-2-methylquinazolin-4-amine]	297 nM	209 nM
COc1cc2nc(C)nc(NC(C)c3ccc(-c4ccc(Cl)cc4CN)s3)c2cc1OC (stereo not drawn) [Example 398, N-[1-{5-[2-(aminomethyl)-4-chlorophenyl]thiophen-2-yl}ethyl]-6,7-dimethoxy-2-methylquinazolin-4-amine]	104 nM	63.4 nM
COc1cc2nc(C)nc(NC(C)c3cc(C)c(-c4ccc(F)cc4CN)s3)c2cc1OC (stereo not drawn) [Example 399, N-(1-{5-[2-(aminomethyl)-4-fluorophenyl]-4-methyl-2-thienyl}ethyl)-6,7-dimethoxy-2-methylquinazolin-4-amine]	333 nM	192 nM
COc1cc2nc(C)nc(NC(C)c3cc(C)c(-c4ccccc4CN(C)C)s3)c2cc1OC (stereo not drawn) [Example 400, N-[1-(5-{2-[(dimethylamino)methyl]phenyl}-4-methyl-2-thienyl)ethyl]-6,7-dimethoxy-2-methylquinazolin-4-amine]	78.7 nM	68.8 nM
COc1cc2nc(C)nc(NC(C)c3cc(C)c(-c4ccccc4CN(C)CCO)s3)c2cc1OC (stereo not drawn) [Example 401, 2-{[2-(5-{1-[(6,7-dimethoxy-2-methylquinazolin-4-yl)amino]ethyl}-3-methyl-2-thienyl)benzyl](methyl)amino}ethanol]	76.3 nM	65.2 nM
CNCc1ccccc1-c1sc(C(C)Nc2nc(C)nc3cc(OC)c(OC)cc23)cc1C (stereo not drawn) [Example 402, 6,7-di methoxy-2-methyl-N-[1-(4-methyl-5-{2-[(methylamino)methyl]phenyl}thiophen-2-yl)ethyl]quinazolin-4-amine]	82.8 nM	75.2 nM
COc1cc2nc(C)nc(NC(C)c3ccc(-c4ccccc4C(O)CO)s3)c2cc1OC (stereo not drawn) [Example 403]	442 nM	548 nM
Cc1ccc2nc(C)nc(N[C@H](C)c3cccc(Cl)c3)c2c1 [Example 404, N-[(1R)-1-(3-chlorophenyl)ethyl]-2,6-dimethylquinazolin-4-amine]	4680 nM	1450 nM
Cc1nc(N[C@H](C)c2cccc(Cl)c2)c2cc(-c3cn[nH]c3)ccc2n1 [Example 405, N-[(1R)-1-(3-chlorophenyl)ethyl]-2-methyl-6-(1H-pyrazol-4-yl)quinazolin-4-amine]	1110 nM	448 nM
Cc1nc(N[C@H](C)c2cccc(Cl)c2)c2cc(-c3cnn(C)c3)ccc2n1 [Example 406, N-[(1R)-1-(3-chlorophenyl)ethyl]-2-methyl-6-(1-methyl-1H-pyrazol-4-yl)quinazolin-4-amine]	727 nM	400 nM
Cc1nc(N[C@H](C)c2cccc(Cl)c2)c2cc(C3CC3)ccc2n1 [Example 407, N-[(1R)-1-(3-chlorophenyl)ethyl]-6-cyclopropyl-2-methylquinazolin-4-amine]	1250 nM	1060 nM
COc1cc2nc(C)nc(NC(C)c3ccc(-c4c(Cl)cccc4CNC(=O)OC(C)(C)C)s3)c2cc1OC (stereo not drawn) [Example 408, tert-butyl [3-chloro-2-(5-{1-[(6,7-dimethoxy-2-methylquinazolin-4-yl)amino]ethyl}thiophen-2-yl)benzyl]carbamate]	533 nM	560 nM
COc1cc2nc(C)nc(NC(C)c3ccc(-c4c(Cl)cccc4CN)s3)c2cc1OC (stereo not drawn) [Example 409, N-[1-{5-[2-(aminomethyl)-6-chlorophenyl]thiophen-2-yl}ethyl]-6,7-dimethoxy-2-methylquinazolin-4-amine]	49.2 nM	28 nM
COc1cc2nc(C)nc(NC(C)c3ccc(-c4ccnc(O)c4)s3)c2cc1OC (stereo not drawn) [Example 410, 4-(5-{1-[(6,7-dimethoxy-2-methylquinazolin-4-yl)amino]ethyl}-2-thienyl)pyridin-2-ol]	4230 nM	2790 nM
COc1cc2nc(C)nc(NC(C)c3ccc(-c4ccccc4C4CC(=O)N4)s3)c2cc1OC (stereo not drawn) [Example 411, 4-[2-(5-{1-[(6,7-dimethoxy-2-methylquinazolin-4-yl)amino]ethyl}thiophen-2-yl)phenyl]azetidin-2-one]	14500 nM	> 20000 nM
COc1cc2nc(C)nc(NC(C)c3ccc(-c4ccc(C#N)cc4CN(C)C)s3)c2cc1OC (stereo not drawn) [Example 413, 4-(5-{1-[(6,7-dimethoxy-2-methylquinazolin-4-yl)amino]ethyl}thiophen-2-yl)-3-[(dimethylamino)methyl]benzonitrile]	223 nM	262 nM

SMILES	IC50 [1]	IC50 [2]
Cc1nc(NC(C)c2ccc(Br)s2)c2cc(N3CCC(N(C)C)C3)ccc2n1 (stereo not drawn) [Example 414, N-[1-(5-bromothiophen-2-yl)ethyl]-6-[3-(dimethylamino)pyrrolidin-1-yl]-2-methylquinazolin-4-amine]	1380 nM	1240 nM
Cc1nc(NC(C)c2ccc(Br)s2)c2cc(N3CCN(C)CC3)ccc2n1 (stereo not drawn) [Example 416, N-[1-(5-bromothiophen-2-yl)ethyl]-2-methyl-6-(4-methylpiperazin-1-yl)quinazolin-4-amine]	867 nM	697 nM
Cc1nc(NC(C)c2ccc(-c3ccccc3CN(C)C)s2)c2cc(N3CCN(C)CC3)ccc2n1 (stereo not drawn) [Example 417, N-[1-(5-{2-[(dimethylamino)methyl]phenyl}thiophen-2-yl)ethyl]-2-methyl-6-(4-methylpiperazin-1-yl)quinazolin-4-amine]	45.5 nM	28.9 nM
Cc1nc(NC(C)c2ccc(-c3ccccc3CN(C)C)s2)c2cc(N3CCC(N(C)C)C3)ccc2n1 (stereo not drawn) [Example 418, N-[1-(5-{2-[(dimethylamino)methyl]phenyl}thiophen-2-yl)ethyl]-6-[3-(dimethylamino)pyrrolidin-1-yl]-2-methylquinazolin-4-amine]	86.6 nM	39.8 nM
Cc1nc(NC(C)c2ccc(Br)s2)c2cc(N3CCCC3)ccc2n1 (stereo not drawn) [Example 419, N-[1-(5-bromothiophen-2-yl)ethyl]-2-methyl-6-(pyrrolidin-1-yl)quinazolin-4-amine]	6450 nM	3740 nM
CC(=O)Nc1ccc2nc(C)nc(NC(C)c3ccc(-c4ccccc4CN(C)C)s3)c2c1 (stereo not drawn) [Example 420, N-(4-{[1-(5-{2-[(dimethylamino)methyl]phenyl}thiophen-2-yl)ethyl]amino}-2-methylquinazolin-6-yl)acetamide]	303 nM	384 nM
COc1ccc(-c2ccc(C(C)Nc3nc(C)nc4cc(OC)c(OC)cc34)s2)c(C)c1 (stereo not drawn) [Example 422, 6,7-dimethoxy-N-{1-[5-(4-methoxy-2-methylphenyl)thiophen-2-yl]ethyl}-2-methylquinazolin-4-amine]	1470 nM	914 nM
Cc1nc(NC(C)c2ccc(-c3ccccc3CN(C)C)s2)c2cc(N)ccc2n1 (stereo not drawn) [Example 423, N4-[1-(5-{2-[(dimethylamino)methyl]phenyl}-2-thienyl)ethyl]-2-methylquinazoline-4,6-diamine]	204 nM	187 nM
Cc1nc(NC(C)c2ccc(Br)s2)c2cc(N3CCN(Cc4cccnc4)CC3)ccc2n1 (stereo not drawn) [Example 424, N-[1-(5-bromothiophen-2-yl)ethyl]-2-methyl-6-[4-(pyridin-3-ylmethyl)piperazin-1-yl]quinazolin-4-amine]	1590 nM	1410 nM
Cc1nc(NC(C)c2ccc(Br)s2)c2cc(NCCN3CCOCC3)ccc2n1 (stereo not drawn) [Example 425, N4-[l-(5-bromo-2-thienyl)ethyl]-2-methyl-N6-[2-(morpholin-4-yl)ethyl]quinazoline-4,6-diamine]	5820 nM	2560 nM
Cc1nc(NC(C)c2ccc(-c3ccccc3CN(C)C)s2)c2cc(N3CCN(Cc4cccnc4)CC3)ccc2n1 (stereo not drawn) [Example 426, N-[1-(5-{2-[(dimethylamino)methyl]phenyl}thiophen-2-yl)ethyl]-2-methyl-6-[4-(pyridin-3-ylmethyl)piperazin-1-yl]quinazolin-4-amine]	33.2 nM	23 nM
CC(=O)NCCNc1ccc2nc(C)nc(NC(C)c3ccc(-c4ccccc4CN(C)C)s3)c2c1 (stereo not drawn) [Example 427, N-{2-[(4-{[1-(5-{2-[(dimethylamino)methyl]phenyl}thiophen-2-yl)ethyl]amino}-2-methylquinazolin-6-yl)amino]ethyl}acetamide]	58.4 nM	49.8 nM
COc1cc2nc(C)nc(NC(C)c3sc(Br)cc3Cl)c2cc1OC (stereo not drawn) [Example 428, N-[1-(5-bromo-3-chlorothiophen-2-yl)ethyl]-6,7-dimethoxy-2-methylquinazolin-4-amine]	916 nM	705 nM
COc1cc2nc(C)nc(NC(C)c3sc(-c4ccccc4CNC(=O)OC(C)(C)C)cc3Cl)c2cc1OC (stereo not drawn) [Example 429, tert-butyl [2-(4-chloro-5-{1-[(6,7-dimethoxy-2-methylquinazolin-4-yl)amino]ethyl}thiophen-2-yl)benzyl]carbamate]	6090 nM	3050 nM
COc1cc2nc(C)nc(NC(C)c3cc(Cl)c(-c4ccccc4CN)s3)c2cc1OC (stereo not drawn) [Example 430, N-[1-{5-[2-(aminomethyl)phenyl]-4-chlorothiophen-2-yl}ethyl]-6,7-dimethoxy-2-methylquinazolin-4-amine]	594 nM	378 nM
COc1cc2nc(C)nc(NC(C)c3cc(Cl)c(-c4ccccc4CN(C)C)s3)c2cc1OC (stereo not drawn) [Example 431, N-[1-(4-chloro-5-{2-[(dimethylamino)methyl]phenyl}thiophen-2-yl)ethyl]-6,7-dimethoxy-2-methylquinazolin-4-amine]	324 nM	215 nM

Source: patent US20240083857A1, “2-Methyl-Quinazolines” (Bayer Pharma Aktiengesellschaft, priority 2017, published 2024)
